Assay results from US20110045101A1, “FUNGICIDAL SUBSTITUTED AZOLES” (E.I. Du Pont De Nemours and Company, priority 2009, published 2011).
Marks after values point to notes of the source that are not given here.

Experiments:
Type in all cases: in vivo
Conditions in all cases: 100 = 100% disease control
[1] = test system: Puccinia recondita f. sp. tritici; assay: Test I: wheat leaf rust on wheat seedlings, sprayed the day before inoculation, visual disease rating
Outline: (§1)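 Spray suspension: acetone 3% of final volume, then 50/50 acetone/water plus 250 ppm Trem® 014. Applied to run-off on seedlings at 200 ppm (≈500 g/ha); starred entries tested at 40 ppm.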

Alternaria solani = assay: Test D: tomato early blight, sprayed the day before inoculation, visual disease rating
Outline: as §1

[2] = test system: Puccinia recondita f. sp. tritici; assay: Test H: wheat leaf rust, test suspension sprayed after inoculation of wheat seedlings, visual disease rating
Excerpt: General protocol for preparing test suspensions for Tests A-J: The test compounds were first dissolved in acetone in an amount equal to 3% of the final volume and then suspended at the desired concentration (in ppm) in acetone and purified water (50/50 mix) containing 250 ppm of the surfactant Trem® 014 (polyhydric alcohol esters). The resulting test suspensions were then used in tests A-J. Spraying a 200 ppm test suspension to the point of run-off on the test plants was the equivalent of a rate of 500 g/ha. […] Wheat seedlings were inoculated with a spore suspension of Puccinia recondita f. sp. tritici (the causal agent of wheat leaf rust) and incubated in a saturated atmosphere at 20° C. for 24 h, and then moved to a growth chamber at 20° C. for 2 days. […] A dash (-) indicates no test results. All results are for 200 ppm except where followed by “*”, which indicates 40 ppm.

Botrytis cinerea = assay: Test C: tomato Botrytis on tomato seedlings, sprayed the day before inoculation, visual disease rating
Outline: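 Spray to run-off on tomato seedlings; test conc. 200 ppm (≈500 g/ha), some entries 40 ppm. Formulation: acetone 3% of final vol., then acetone/water 50:50 + 250 ppm polyhydric alcohol ester surfactant.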

[3] = test system: Erysiphe graminis f. sp. tritici; assay: Test J: wheat powdery mildew on wheat seedlings, sprayed the day before inoculation, visual disease rating
Outline: as §1

Septoria tritici = assay: Test G: wheat leaf blotch on wheat seedlings, sprayed the day before inoculation, visual disease rating
Outline: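 Compounds dissolved in acetone (3% of final volume), then suspended in 50/50 acetone/water with 250 ppm Trem® 014 and sprayed to run-off on seedlings at 200 ppm (≈500 g/ha) or 40 ppm where marked. Inoculation with spores followed next day; visual rating after 48 h saturated at 24° C plus 19 days at 20° C.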

Septoria nodorum = assay: Test F: wheat glume blotch on wheat seedlings, sprayed the day before inoculation, visual disease rating
Outline: as §1

[4] = 200 ppm, 0 = no control relative to controls
[5] = 40 ppm (marked *), 0 = no control

SMILES	Test I disease control rating [1, 4]	Test D disease control rating (Alternaria solani; [4])	Test H disease control rating [2, 4]	Test C disease control rating (Botrytis cinerea; [4])	Test J disease control rating [3, 4]	Test G disease control rating (Septoria tritici; [4])	Test F disease control rating (Septoria nodorum; [4])	also measured
Fc1cc(F)c(-c2c(Cl)ncn2-c2ccc(OC(F)F)cc2)c(F)c1 [compound 585]	100%	99%	0%	100%	99%	100%	0%	
Fc1cccc(-n2c(Br)nc(Cl)c2-c2c(F)ccc(F)c2F)c1 [compound 368]	99%	100%	0%	99%	96%	92%	0%	
CCOc1ccc(F)c(-c2c(Cl)nc(C)n2-c2cccc(F)c2)c1F [compound 724]	100%	100%	0%	100%	99%	98%	97%	
Cc1ncn(-c2ccc(Cl)c(F)c2)c1-c1scnc1Cl [compound 376]	54%	0%	0%	90%	67%	78%	0%	
COc1cc(F)c(-c2c(Cl)nc(C)n2-c2cccc(Cl)c2)c(F)c1 [compound 500]	100%	100%	98%	98%	100%	94%	100%	
CCOc1ccc(F)c(-c2c(Cl)ncn2-c2cccc(F)c2)c1F [compound 661]	100%	99%	0%	99%	100%	99%	87%	
COCc1nc(Cl)n(-c2c(F)cccc2F)c1-c1ccc(Cl)cc1 [compound 467]								Test I disease control rating ([1]; 40 ppm (marked *)): 71* %; Test D disease control rating (Alternaria solani; 40 ppm (marked *)): 0* %; Test H disease control rating ([2]; 40 ppm (marked *)): 0* %; Test C disease control rating (Botrytis cinerea; 40 ppm (marked *)): 94* %; Test J disease control rating ([3]; 40 ppm (marked *)): 96* %; Test G disease control rating (Septoria tritici; 40 ppm (marked *)): 32* %; Test F disease control rating (Septoria nodorum; 40 ppm (marked *)): 0* %
Fc1cc(F)c(-c2c(Cl)nc(Cl)n2-c2ccc(OC(F)(F)F)cc2)c(F)c1 [compound 600]	0%	100%	7%	86%	99%	94%	0%	
COc1ccc(F)c(-c2c(Cl)nc(C)n2-c2ccc(F)cc2)c1F [compound 334]								Test I disease control rating [1, 5]: 100* %; Test D disease control rating (Alternaria solani; [5]): 100* %; Test H disease control rating [2, 5]: 0* %; Test C disease control rating (Botrytis cinerea; [5]): 100* %; Test J disease control rating [3, 5]: 100* %; Test G disease control rating (Septoria tritici; [5]): 93* %; Test F disease control rating (Septoria nodorum; [5]): 90* %
Cc1nc(Cl)n(-c2ccc(Cl)c(F)c2)c1-c1c(F)ccc(F)c1Cl [compound 494]								Test I disease control rating ([1]; 40 ppm (marked *)): 99* %; Test D disease control rating (Alternaria solani; 40 ppm (marked *)): 99* %; Test H disease control rating ([2]; 40 ppm (marked *)): 0* %; Test C disease control rating (Botrytis cinerea; 40 ppm (marked *)): 89* %; Test J disease control rating ([3]; 40 ppm (marked *)): 99* %; Test G disease control rating (Septoria tritici; 40 ppm (marked *)): 89* %; Test F disease control rating (Septoria nodorum; 40 ppm (marked *)): 0* %
Cc1ncn(-c2ccc(Cl)c(F)c2)c1-c1cccnc1Cl [compound 348]	0%	0%	0%	0%	27%	8%	0%	
COc1ccc(F)c(-c2c(Cl)nc(Cl)n2-c2cccc(C)c2)c1F [compound 391]	99%	99%	0%	100%	100%	94%	0%	
Fc1cc(F)c(-c2c(Cl)nc(Cl)n2-c2cccc(OC(F)(F)F)c2)c(F)c1 [compound 599]	0%	0%	0%	26%	0%	9%	0%	
COc1cc(F)c(-n2c(C)nc(Cl)c2-c2ccc(Cl)cc2)c(F)c1 [compound 423]								Test I disease control rating [1, 5]: 91* %; Test D disease control rating (Alternaria solani; [5]): 0* %; Test H disease control rating [2, 5]: 0* %; Test C disease control rating (Botrytis cinerea; [5]): 100* %; Test J disease control rating [3, 5]: 99* %; Test G disease control rating (Septoria tritici; [5]): 94* %; Test F disease control rating (Septoria nodorum; [5]): 69* %
N#Cc1ccc(-n2cnc(Cl)c2-c2c(F)ccc(C#N)c2F)cc1 [compound 387]	0%	0%	0%	0%	0%	0%	0%	
CCc1cccc(-n2c(Cl)nc(Cl)c2-c2c(F)ccc(OC)c2F)c1 [compound 427]	93%	100%	0%	100%	100%	100%	99%	
